# Measurements from patent publication US20250186496A1, “METHODS AND COMPOSITIONS FOR CONTROLLING T CELL ACTIVATION” (The General Hospital Corporation, priority 2022, published 2025).
# Legend:
# IL-7 = test: Cytokine expression and soluble IL-7 in supernatant of CAR T cells cocultured with CD19+ Nalm6; assay type: cell-based
# From the text: FIGS. 13A-13C show mbdIL7 is cleaved from the T cell surface in a state-dependent manner.
# STAT5 = STAT5 signaling over increasing concentrations of lenalidomide; assay type: cell-based, human; conditions: increasing lenalidomide concentration; CAR19 cells with mbdIL7
# mbdIL7-Luc = conditions: mice
# Procedure: The mdbIL7 was tagged with luciferase (mdbTL7-Luc), so mdbTL7 expression could be monitored in vivo. Mice were injected with Jurkat cells that were transduced with mdbIL7-Luc. The Jurkat mdbTL7-Luc cells were allowed to engraft for 25 days and then pomalidomide was administered to the mice (FIG. 14A).
# [1] = system: T cells expressing a CD19 CAR; test: Expansion/activation of CAR T cells in production with or without exogenous IL-2 (population doublings); assay type: cell-based, human; conditions: CAR19 mbdIL7 without exogenous IL-2 vs CAR19 cells induced with IL-2
# Procedure: CAR19 T cells and mbdTL7 CAR19 T cells were cultured with and without exogenous IL-2. […] This was shown for two different types of cancer cells, Nalm6 and K562.
molecule,measurement,setting,value
Nc1cccc2c1CN(C1CCC(=O)NC1=O)C2=O (stereo not drawn) [lenalidomide],effect of lenalidomide on IL-7 cleavage without antigen exposure,IL-7; CAR19 mbdIL7 not experiencing antigen exposure,no appreciable effects
same,control of cleavage of IL-7 from the T cell surface by lenalidomide,IL-7; CAR19 mbdIL7 with antigen exposure,effectively controlled by lenalidomide in a dose-dependent manner
same,pSTAT5 expression,STAT5,a decrease in pSTAT5 expression
Nc1cccc2c1C(=O)N(C1CCC(=O)NC1=O)C2=O (stereo not drawn) [pomalidomide],decrease of mdbIL7-luc expression,mbdIL7-Luc; 6 hours after administration of pomalidomide,more than 10 fold
same,mdbIL7-luc expression,mbdIL7-Luc; by 24 hours after pomalidomide administration,returned to levels similar to pre-administration
"mbdIL7: T cell factor: human IL-7, a CD80 hinge and transmembrane domain, and a lenalidomide-responsive zinc finger degron domain (protein) MLLLVTSLLLCELPHPAFLLIPEQKLISEEDLDCDIEGKDGKQYESVLMVSIDQLLDSMKEIGSNCLNNEFNFFKRHICDANKEGMFLFRAARKLRQFLKMNSTGDFDLHLLKVSEGTTILLNCTGQVKGRKPAALGEAQPTKSLEENKSLKEQKKLNDLCFLKRLLQEIKTCWNKILMGTKEHWNTTKQEHFPDNLLPSWAITLISVNGIFVICCLTYCFAPRCRERRRNERLRRESVRPVGSGSGSGSGGFNVLMVHKRSHTGERPLQCEICGFTCRQKGNLLRHIKLHTGEKPFKCHLCNYACQRRDAL",CAR19 cell doubling time / expansion rate,[1],not significantly affected
